Consider 14 molecules from patent US20100204340A1 (priority 2009, published 2010).

Data set [1] relates to adipocyte differentiation. To be noted: prior art, Biochem Biophys Res Commun 372 (2008) 108-113; cited from earlier work.
Data set [2] deals with T1, SIRT1 polypeptide (Homo sapiens, UniProt Q96EB6).
T1 construct: purchased Cayman Chemical Company 10010401
T1 sequence (Q96EB6 1-747): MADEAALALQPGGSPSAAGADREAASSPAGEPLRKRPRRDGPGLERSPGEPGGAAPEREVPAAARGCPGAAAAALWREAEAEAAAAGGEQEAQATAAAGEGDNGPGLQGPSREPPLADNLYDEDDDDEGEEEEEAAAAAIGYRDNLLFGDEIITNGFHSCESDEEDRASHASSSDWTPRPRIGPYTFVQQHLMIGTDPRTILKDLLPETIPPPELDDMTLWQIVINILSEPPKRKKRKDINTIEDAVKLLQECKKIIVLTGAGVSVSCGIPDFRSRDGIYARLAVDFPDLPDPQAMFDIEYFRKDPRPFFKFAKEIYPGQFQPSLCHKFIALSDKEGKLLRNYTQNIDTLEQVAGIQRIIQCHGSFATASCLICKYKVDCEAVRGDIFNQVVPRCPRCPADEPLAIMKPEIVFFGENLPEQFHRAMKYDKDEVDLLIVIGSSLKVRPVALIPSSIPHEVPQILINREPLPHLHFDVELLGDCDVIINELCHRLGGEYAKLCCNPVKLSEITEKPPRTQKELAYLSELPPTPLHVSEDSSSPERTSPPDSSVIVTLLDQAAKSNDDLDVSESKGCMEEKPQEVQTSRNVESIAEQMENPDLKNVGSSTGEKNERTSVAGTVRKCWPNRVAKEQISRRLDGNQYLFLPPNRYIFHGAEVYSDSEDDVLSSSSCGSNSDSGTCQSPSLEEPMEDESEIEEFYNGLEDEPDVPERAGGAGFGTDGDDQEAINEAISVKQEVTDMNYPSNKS
Kind of data set: SIRT 1 Direct fluorescent Screening Assay kit (Cayman). To be noted: read-out: Percentage SIRT 1 modulation; for activation at 1 µg/mL: 1 μg/ml; for activation at 10 µg/mL: 10 μg/ml; for activation at 50 µg/mL: 50 μg/ml; for activation at 100 µg/mL: 100 μg/ml; for activation at 250 µg/mL: 250 μg/ml. The format is biochemical. Here is the method:
SIRT-1 activation/inhibition was measured using the SIRT 1 Direct fluorescent Screening Assay kit (Catalog No. 10010401) and instructions provided therein of Cayman Chemical Company, 1180 East Ellsworth Road, Ann Arbor, Mich. 48108 USA. (http://www.caymanchem.com/pdfs/10010401.pdf)

Data set [3] has as its system 3T3-L1 cells. To be noted: cited from earlier work.
Data set [4] is described as follows: Pharmacokinetics in serum and urine upon oral administration. The format is in vivo, rats. Conditions: rats, oral, 100 mg/kg body weight. Here is the method: The compound in its free and conjugated form is freely absorbed into systemic circulation with the glucoronide detected up to 72 hours.
(FIG. 4). The compound in its free and conjugated form appears in systemic circulation within 15 minutes of administration.

The structures appear in SMILES notation. pIC50: −log10 of the molar value.

On to `CC(=O)Oc1ccc(C=Cc2cc(OC(C)=O)cc(OC(C)=O)c2)cc1` [resveratrol triacetate], for which the “Effect on adipocyte differentiation / adipogenesis” value in data set [1] is “no effect on adipogenesis”. On to `CC(NC(=O)c1ccccc1/N=C/c1c(O)ccc2ccccc12)c1ccccc1` (stereo not shown) [Sirtinol, 2-[(2-Hydroxynaphthalen-1-ylmethylene)amino]-N-(1-phenyl-ethyl)•benzamide], for which, in data set [2], the activation at 1 µg/mL was 64.4%. With `Oc1ccc(/C=C/c2cc(O)cc3c2[C@@H](c2cc(O)cc(O)c2)[C@H](c2ccc(O)cc2)O3)cc1` [e-viniferin], in data set [1], the “Effect on adipocyte differentiation / adipogenesis” value was “no effect on adipogenesis”.

Turning to `COc1ccc(C=Cc2cc(OC(C)=O)cc(OC3OC(COC(C)=O)C(OC(C)=O)C(OC(C)=O)C3OC(C)=O)c2)cc1OC(C)=O` (stereo not shown) [rhaponticin hexaacetate], the “Effect on adipocyte differentiation / adipogenesis” value in data set [1] is “no effect on adipogenesis”. Turning to `COc1cc(C=Cc2ccc(O)cc2)cc(OC)c1` [Pterostilbene, 3,5-dimethoxy-4′-hydroxystilbene], the pIC50 in data set [3] (approximate conversion of 23.9 μg/ml, read-out: Reported IC50 (adipogenesis), converted) was about 4.02. Moreover, in data set [3] (reported, Remsberg et al., 3T3-L1), the “Reported IC50 (adipogenesis)” value is 23.9 µg/mL. In addition, in data set [2], the activation at 1 µg/mL came out at 2.22%, the activation at 10 µg/mL came to 11.1%, the activation at 50 µg/mL turned out to be 53.3% and the activation at 100 µg/mL turned out to be 113%. Moreover, in data set [2], the activation at 250 µg/mL is 231%.

With `COc1c(O)cc(C=Cc2ccccc2)cc1O` [3,5-dihydroxy-4-methoxystilbene], the “Effect on adipocyte differentiation / adipogenesis” value in data set [1] is “no effect on adipogenesis”. Regarding `Oc1ccc([C@H]2c3c(O)cc(O)cc3[C@H]3c4c(cc(O)cc4[C@@H]2c2cc(/C=C/c4cc(O)cc5c4[C@H](c4cc(O)cc(O)c4)[C@@H](c4ccc(O)cc4)O5)ccc2O)O[C@@H]3c2ccc(O)cc2)cc1` [Vitisin A], in data set [1], the “Effect on adipocyte differentiation / adipogenesis” value is “inhibited adipocyte differentiation most effectively”. As for `COc1ccc(/C=C/c2cc(O)cc(O[C@@H]3O[C@H](CO)[C@@H](O)[C@H](O)[C@H]3O)c2)cc1O` [rhaponticin], in data set [1], the “Effect on adipocyte differentiation / adipogenesis” value is reported as “no effect on adipogenesis”. Regarding `CC(=O)O.Cc1c(O)cc(C=Cc2ccccc2)cc1O` [3,5-dihydroxy-4-methylstilbene acetate], the “Effect on adipocyte differentiation / adipogenesis” value in data set [1] is recorded as “no effect on adipogenesis”. As for `OC[C@H]1O[C@@H](Oc2cc(O)cc(/C=C/c3ccc(O)cc3)c2)[C@H](O)[C@@H](O)[C@@H]1O` [resveratrol-3-O-B-D-glucoside], the “Effect on adipocyte differentiation / adipogenesis” value in data set [1] is on record as “no effect on adipogenesis”. On to `Oc1cc(O)cc(/C=C/c2ccc(O)cc2O)c1` [Oxyresveratrol, trans-2,3′,4,5′-tetrahydroxystilbene], for which, in data set [2], the activation at 1 µg/mL worked out at 77.8%, the activation at 10 µg/mL amounted to 24.4%, the activation at 50 µg/mL turned out to be 60% and the activation at 100 µg/mL was determined as 202%. Moreover, the activation at 250 µg/mL in data set [2] amounted to 298%. Regarding `COc1ccc(C=Cc2cc(O)cc(O)c2)cc1` [3,5-dihydroxy-40-methoxystilbene], the “Effect on adipocyte differentiation / adipogenesis” value in data set [1] is on record as “no effect on adipogenesis”.

Take `Oc1cc(O)cc(/C=C/c2c(O)cccc2O)c1` [Gnetol, 2,3′,5′,6-tetrahydroxy-trans-stilbene]: the “Oral bioavailability (free form and glucoronide)” value in data set [4] (serum) is reported as “orally bioavailable”. Besides, in data set [4] (urine), the Urinary excretion form entry is on record as “excreted predominantly as glucoronides in the urine”. In the case of `CC(=O)OCC1OC(Oc2cc(C=Cc3ccc(OC(C)=O)cc3)cc(OC(C)=O)c2)C(OC(C)=O)C(OC(C)=O)C1OC(C)=O` (stereo not shown) [resveratrol-3-O-Glu hexaacetate], the “Effect on adipocyte differentiation / adipogenesis” value in data set [1] is listed as “no effect on adipogenesis”.
